Data as given in ChEMBL document CHEMBL1201862, “PubChem BioAssay data set” (2004).
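All cell lines were grown in 96-well plates and treated with compound for 48 hours. Abbreviation: GI50, concentration required for 50% inhibition of growth.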 The source made the active and inactive calls. No stated cut-off is given here; in the data, active = GI50 up to about 1.1 µM and inactive = higher.

Assays:
Assay in all cases: growth of human tumour cells (NCI), 48 h
MDA-MB-435 = test system: MDA-MB-435
MDA-MB-231 = test system: MDA-MB-231
OVCAR-3 = test system: OVCAR-3
NCI-H23 = test system: NCI-H23
SK-MEL-2 = test system: SK-MEL-2
RXF 393 = test system: RXF 393
COLO 205 = test system: COLO 205
SW-620 = test system: SW-620
NCI-H460 = test system: NCI-H460
PC-3 = test system: PC-3
KM12 = test system: KM12
MOLT-4 = test system: MOLT-4
SF-295 = test system: SF-295
DU-145 = test system: DU-145
EKVX = test system: EKVX
TK-10 = test system: TK-10
CCRF-CEM = test system: CCRF-CEM
OVCAR-5 = test system: OVCAR-5
T47D = test system: T47D
SF-268 = test system: SF-268
Hs-578T = test system: Hs-578T
SNB-19 = test system: SNB-19
HCT-116 = test system: HCT-116
SR = test system: SR
MDA-N = test system: MDA-N
U-251 = test system: U-251
IGROV-1 = test system: IGROV-1
OVCAR-4 = test system: OVCAR-4
UACC-62 = test system: UACC-62
Malme-3M = test system: Malme-3M
UACC-257 = test system: UACC-257
HT-29 = test system: HT-29
SNB-75 = test system: SNB-75
786-0 = test system: 786-0
BT-549 = test system: BT-549
OVCAR-8 = test system: OVCAR-8
ACHN = test system: ACHN
HCT-15 = test system: HCT-15
SK-MEL-5 = test system: SK-MEL-5
CAKI-1 = test system: CAKI-1
A549 = test system: A549
HOP-92 = test system: HOP-92
SF-539 = test system: SF-539
RPMI-8226 = test system: RPMI-8226
HL-60 = test system: HL-60
MCF7 = test system: MCF7
SK-OV-3 = test system: SK-OV-3
HCC 2998 = test system: HCC 2998
SN12C = test system: SN12C
LOX IMVI = test system: LOX IMVI
M14 = test system: M14
NCI-H226 = test system: NCI-H226
K562 = test system: K562
HOP-62 = test system: HOP-62
SK-MEL-28 = test system: SK-MEL-28
NCI-H522 = test system: NCI-H522
NCI/ADR-RES = test system: NCI/ADR-RES
UO-31 = test system: UO-31
A498 = test system: A498

For `Cc1ccc(Nc2nc3ccccc3c(=O)n2N)cc1`, the GI50 (MDA-MB-435) was > 100 µM (inactive), the GI50 (MDA-MB-231) was > 100 µM (inactive) and the GI50 (OVCAR-3) was > 100 µM (inactive). For the same compound, the GI50 (NCI-H23) was > 100 µM (inactive), the GI50 (SK-MEL-2) was > 100 µM (inactive) and the GI50 (RXF 393) was > 100 µM (inactive). The GI50 (COLO 205) was > 100 µM (inactive), the GI50 (SW-620) was > 100 µM (inactive) and the GI50 (NCI-H460) was > 100 µM (inactive). The GI50 (PC-3) was > 100 µM (inactive), the GI50 (KM12) was > 100 µM (inactive) and the GI50 (MOLT-4) was > 100 µM (inactive). For the same compound, the GI50 (SF-295) was > 100 µM (inactive), the GI50 (DU-145) was > 100 µM (inactive) and the GI50 (EKVX) was > 100 µM (inactive). For the same compound, the GI50 (TK-10) was > 100 µM (inactive), the GI50 (CCRF-CEM) was > 100 µM (inactive) and the GI50 (OVCAR-5) was > 100 µM (inactive). The GI50 (T47D) was > 100 µM (inactive), the GI50 (SF-268) was > 100 µM (inactive) and the GI50 (Hs-578T) was > 100 µM (inactive). For the same compound, the GI50 (SNB-19) was > 100 µM (inactive), the GI50 (HCT-116) was > 100 µM (inactive) and the GI50 (SR) was > 100 µM (inactive). The GI50 (MDA-N) was > 100 µM (inactive), the GI50 (U-251) was > 100 µM (inactive) and the GI50 (IGROV-1) was 88.3 µM (inactive). The GI50 (OVCAR-4) was > 100 µM (inactive), the GI50 (UACC-62) was > 100 µM (inactive) and the GI50 (Malme-3M) was > 100 µM (inactive). For the same compound, the GI50 (UACC-257) was > 100 µM (inactive), the GI50 (HT-29) was 78.2 µM (inactive) and the GI50 (SNB-75) was 75 µM (inactive). For the same compound, the GI50 (786-0) was > 100 µM (inactive), the GI50 (BT-549) was > 100 µM (inactive) and the GI50 (OVCAR-8) was > 100 µM (inactive). The GI50 (ACHN) was > 100 µM (inactive), the GI50 (HCT-15) was > 100 µM and the GI50 (SK-MEL-5) was > 100 µM (inactive). For the same compound, the GI50 (CAKI-1) was > 100 µM (inactive), the GI50 (A549) was > 100 µM (inactive) and the GI50 (HOP-92) was > 100 µM (inactive). For the same compound, the GI50 (SF-539) was > 100 µM (inactive), the GI50 (RPMI-8226) was > 100 µM (inactive) and the GI50 (HL-60) was > 100 µM (inactive). The GI50 (MCF7) was > 100 µM (inactive), the GI50 (SK-OV-3) was > 100 µM (inactive) and the GI50 (HCC 2998) was > 100 µM (inactive). For the same compound, the GI50 (SN12C) was > 100 µM (inactive), the GI50 (LOX IMVI) was > 100 µM (inactive) and the GI50 (M14) was > 100 µM (inactive). The GI50 (NCI-H226) was > 100 µM (inactive), the GI50 (K562) was > 100 µM (inactive) and the GI50 (HOP-62) was > 100 µM (inactive). The GI50 (SK-MEL-28) was > 100 µM (inactive), the GI50 (NCI-H522) was > 100 µM (inactive) and the GI50 (NCI/ADR-RES) was > 100 µM (inactive). The GI50 (UO-31) was > 100 µM (inactive).

`O=C1O/C(=C\c2ccc(O)c(Br)c2)C(c2ccc(O)c(Cl)c2)=C1Br` was tested, and the GI50 (MDA-MB-435) was 16 µM (inactive), the GI50 (MDA-MB-231) was 37.3 µM (inactive) and the GI50 (OVCAR-3) was 17.8 µM (inactive). For the same compound, the GI50 (NCI-H23) was 17.3 µM (inactive), the GI50 (SK-MEL-2) was 19.1 µM (inactive) and the GI50 (RXF 393) was 17.2 µM (inactive). For the same compound, the GI50 (COLO 205) was 18.1 µM (inactive), the GI50 (SW-620) was 17.3 µM (inactive) and the GI50 (NCI-H460) was 17.1 µM (inactive). For the same compound, the GI50 (PC-3) was 11.7 µM (inactive), the GI50 (KM12) was 15 µM (inactive) and the GI50 (MOLT-4) was 16.6 µM (inactive). For the same compound, the GI50 (SF-295) was 16.1 µM (inactive), the GI50 (DU-145) was 18.8 µM (inactive) and the GI50 (EKVX) was 21.2 µM (inactive). For the same compound, the GI50 (TK-10) was 25.2 µM (inactive), the GI50 (CCRF-CEM) was 12.3 µM (inactive) and the GI50 (OVCAR-5) was 18.6 µM (inactive). For the same compound, the GI50 (T47D) was 19 µM (inactive), the GI50 (SF-268) was 14.3 µM (inactive) and the GI50 (Hs-578T) was 15.7 µM (inactive). The GI50 (SNB-19) was 18.3 µM (inactive), the GI50 (A498) was 19.5 µM (inactive) and the GI50 (HCT-116) was 13.7 µM (inactive). The GI50 (SR) was 5.86 µM (inactive), the GI50 (MDA-N) was 16.8 µM (inactive) and the GI50 (U-251) was 13.5 µM (inactive). For the same compound, the GI50 (IGROV-1) was 21.9 µM (inactive), the GI50 (OVCAR-4) was 11.5 µM (inactive) and the GI50 (UACC-62) was 13.9 µM (inactive). The GI50 (Malme-3M) was 17.9 µM (inactive), the GI50 (UACC-257) was 15.8 µM (inactive) and the GI50 (HT-29) was 12.9 µM (inactive). The GI50 (786-0) was 16.3 µM (inactive), the GI50 (BT-549) was 17.9 µM (inactive) and the GI50 (OVCAR-8) was 23 µM (inactive). For the same compound, the GI50 (ACHN) was 15.2 µM (inactive), the GI50 (HCT-15) was 12.7 µM and the GI50 (SK-MEL-5) was 14.8 µM (inactive). For the same compound, the GI50 (CAKI-1) was 27 µM (inactive), the GI50 (A549) was 18.4 µM (inactive) and the GI50 (HOP-92) was 15.4 µM (inactive). For the same compound, the GI50 (SF-539) was 18.6 µM (inactive), the GI50 (RPMI-8226) was 13.2 µM (inactive) and the GI50 (HL-60) was 20 µM (inactive). The GI50 (MCF7) was 16.7 µM (inactive), the GI50 (SK-OV-3) was 18 µM (inactive) and the GI50 (HCC 2998) was 3.65 µM (inactive). For the same compound, the GI50 (SN12C) was 25.8 µM (inactive), the GI50 (LOX IMVI) was 44.6 µM (inactive) and the GI50 (M14) was 17.8 µM (inactive). The GI50 (K562) was 17.3 µM (inactive), the GI50 (HOP-62) was 19.9 µM (inactive) and the GI50 (SK-MEL-28) was 16.3 µM (inactive). The GI50 (NCI-H522) was 14.4 µM (inactive), the GI50 (NCI/ADR-RES) was 19.9 µM (inactive) and the GI50 (UO-31) was 25.7 µM (inactive).
